Experimental data taken from US7795390B2, “Biological substance nesfatin and its related substances and uses thereof” (Teijin Pharma Limited, priority 2005, dated 2010).

Assays:
ICR mice = test: Intraperitoneal administration of partial peptides of nesfatin-1 / nesfatin-1M30 / NUCB1-M30 to ICR mice, food intake; type: in vivo, mouse; conditions: 0-3 hours
Procedure: Each peptide of nesfatin-1N23, nesfatin-1M30 and nesfatin-1C29 used was a synthetic peptide of which production was referred to Biologica Co., Ltd. and was purified by HPLC to a purity of 95% or higher. Each peptide was prepared in physiological saline so as to contain 50 nmol per 200 μl, which was used as the sample, and as the control sample physiological saline (Vehicle) alone was used. Using a tuberculin syringe equipped with a 25G needle, 200 μl each of the samples was administered once into the abdominal cavity of each mouse (5 animals per group), and the time of administration was immediately before the start (6 p.m.) of the dark period. Mice used were male ICR mice (Nippon SLC) and the housing condition was similar to those in Working Example 18.
Each mouse that received administration was placed in an individual cage, and during 0-3 hours after the administration the weight decreased of the pellet food was measured to determine the amount of food intake. For testing of significant difference, analysis of variance was used.
Each peptide was prepared in physiological saline so as to contain 10 pmol per 100 μl, which was used as the sample for administration, and as the control sample physiological saline (Vehicle) alone was used. The physiological saline as the control and the peptide samples prepared were intraperitoneally administered at 100 μl per mouse (6 animals per group). Mice used were male ICR mice (Nippon SLC) and the housing condition and the experimental condition were similar to those in Working Example 18.
Each of the prepared human nesfatin-1M30 and mouse NUCB1-M30 was prepared in physiological saline so as to contain 10 pmol per 100 μl, which was used as the sample for administration.
The physiological saline as the control and the peptide sample prepared were intraperitoneally administered at 100 μl per mouse (n=6 per group). Mice used were male ICR mice (Nippon SLC) and the housing condition and the experimental condition were similar to those in Working Example 18.

Wistar rats = test: Administration of nesfatin-1, nesfatin-2, nesfatin-3, nesfatin-2/3 into the third ventricle, amount of food intake; type: in vivo, rat; conditions: for amount of food intake: 25 pmol into the third ventricle before dark period, 0-1 hr and 1-3 hr, vs control
Procedure: Samples used for intracerebral administration were PBS alone (vehicle group), or nesfatin-1, nesfatin-2, nesfatin-3 or nesfatin-2/3 prepared in Working Example 10 each dissolved in PBS, and 25 pmol was administered per individual into the third ventricle immediately before the dark period. Rats used were Wistar rats (purchased from Nippon SLC) and were housed as in Working Example 6, and among 8-9 week-old male Wistar rats, those individuals weighing 200-250 g were selected and used (N=5). The technique of intraventricular administration and the measurement of the amount of food intake in rats were carried out in a method similar to those in Working Example 6. In the measurement of the amount of food intake, the reduced amount of food at 1 hour after administration (0-1 hr) and 2 hours after administration (1-3 hrs) was determined as food intake.
In the same condition above, 1, 5 or 25 pmol of nesfatin-1 as a sample was administered per rat individual into the third ventricle immediately before the dark period. In this experiment, the amount of food intake was determined at 1 hour after administration (0-1 hr).
The experimental condition was similar to that in Working Example 12, and 5 pmol of nesfatin-1 was administered into the third ventricle of the rat brain immediately before the start of the dark period, the amount decreased of the food (the amount of food intake) during 1 hour immediately after administration (0-1 hr), during 2 hours from 1 hour after the administration (1-3 hr), during 3 hours from 3 hours after the administration (3-6 hr), and during 6 hours from 6 hours after the administration (6-12 hr) was measured as the amount of food intake. As the control group, the amount of food intake by individuals that received physiological saline alone was measured.
The experimental condition was similar to that in Working Example 12, and for a group that received 5 pmol of nesfatin-1 alone into the third ventricle of the rat brain immediately before the start of the dark period and a group that received 5 pmol of nesfatin-1 and 8 μg of anti-nesfatin-1 antibody (nesfatin-1 IgG), the amount of food intake for 1 hour after administration was measured and compared to that for the control group (physiological saline alone was administered). Also, for a group that received only leptin (Rat leptin: R & D Systems, 598-LP-01M) (1 μg) which is known to have an activity of suppressing food intake by intraventricular administration and a group that received leptin and anti-nesfatin-1 antibody, its effect on food intake was also studied.

[1] = 10 pmol per 100 μl ip, partial peptides of nesfatin-1M30, vs saline
[2] = 10 pmol per 100 μl ip, Working Example 23, vs Vehicle
[3] = 50 nmol per 200 μl ip, vs Vehicle

In the case of “N-LysGlnValIleGluValLeuGluThrAsp-C (KQVIEVLETD; listed as Mus musculus) [nesfatin-1M10M]”, the “amount of food intake” value (ICR mice; [1]) is reported as “significant effect of suppressing food intake”.

With “N-ValLeuGluThrAspProHisPheArgGluLysLeuGlnLys-C (VLETDPHFREKLQK; listed as Mus musculus) [nesfatin-1M14]” the “amount of food intake” value (ICR mice; [1]) was “significant effect of suppressing food intake”.

In the case of “human nesfatin-1M30: human nesfatin-1M30 (SEQ ID NO: 39), chemical synthesis (PDTGLYYDEYLKQVIDVLETDKHFREKLQK; listed as Homo sapiens)”, the “amount of food intake” value (ICR mice; [2]) is reported as “significant effect of suppressing food intake”.

For “mouse NUCB1-M30: site of mouse NUCB1 corresponding to nesfatin-1M30 (SEQ ID NO: 103) (PDTGLYYHRYLQEVINVLETDGHFREKLQA; listed as Mus musculus)”, the “amount of food intake” value (ICR mice; [2]) was “significant effect of suppressing food intake”.

With “nesfatin-1C29: amino acid numbers 54 to 82 of mouse nesfatin-1 (SEQ ID NO: 43) (ADIEEIRSGRLSQELDLVSHKVRTRLDEL; listed as Mus musculus)” the “amount of food intake” value (ICR mice; [3]) was “no significant decrease or enhancement in the amount of food intake”.

For “nesfatin-1M16: 16-amino acid partial peptide of mouse nesfatin-1M30 (SEQ ID NO: 71) (PDTGLYYDEYLKQVIE; listed as Mus musculus)”, the “amount of food intake” value (ICR mice; [1]) was “significant effect of suppressing food intake”.

For “nesfatin-1M30: 30-amino acid partial peptide of mouse nesfatin-1 (SEQ ID NO: 41) (PDTGLYYDEYLKQVIEVLETDPHFREKLQK; listed as Mus musculus)”, the “amount of food intake” value (ICR mice; [2]) was “significant effect of suppressing food intake” and the “amount of food intake” value (ICR mice; [3]) was “significant decrease”.

In the case of “nesfatin-1N23: amino acid numbers 1 to 23 of mouse nesfatin-1 (SEQ ID NO: 42) (VPIDVDKTKVHNTEPVENARIEP; listed as Mus musculus)”, the “amount of food intake” value (ICR mice; [3]) is reported as “no significant decrease or enhancement in the amount of food intake”.

B1: leptin: Rat leptin: R & D Systems, 598-LP-01M; known to suppress food intake by intraventricular administration (protein)
chain: VPIHKVQDDTKTLIKTIVTRINDISHTQSVSARQRVTGLDFIPGLHPILSLSKMDQTLAVYQQILTSLPSQNVLQIAHDLENLRDLLHLLAFSKSCSLPQTRGLQKPESLDGVLEASLYSTEVVALSRLQGSLQDILQQLDLSPEC
In the case of B1, the “amount of food intake for 1 hour after administration” value (Wistar rats; given alone into the third ventricle (nesfatin-1 5 pmol; leptin 1 μg), vs saline control) is reported as “decreased”.

B2: nesfatin-2/3: portion of the sequence consisting of nesfatin-2 and nesfatin-3 (SEQ ID NO: 47), cell-free protein synthesis (protein, listed as Rattus norvegicus)
chain: QEVGRLRMLIKAKLDALQDTGMNHHLLLKQFEHLNHQNPDTFESKDLDMLIKAATADLEQYDRTRHEEFKKYEMMKEHERREYLKTLSEEKRKEEEAKFAEMKRKHEDHPKVNHPGSKDQLKEVWEETDGLDPNDFDPKTFFKLHDVNNDGFLDEQELEALFTKELDKVYNPQNAEDDMIEMEEERLRMREHVMNEIDNNKDRLVTLEEFLRATEKKEFLEPDSWETLDQQQLFTEEELKEYESIIAIQESELKKKADELQKQKEELQRQHDHLEAQKQEYQQAVQQLEQKKFQQGIAPSGPAGELKFEPHT
With B2 the “amount of food intake” value (Wistar rats) was “did not exhibit any significant changes in the amount of food intake”.

B3: nesfatin-3: 231 residues, amino acid Nos. 190 to 420 of nesfatin (SEQ ID NO: 17), cell-free protein synthesis, Met added (protein, listed as Rattus norvegicus)
chain: EYLKTLSEEKRKEEEAKFAEMKRKHEDHPKVNHPGSKDQLKEVWEETDGLDPNDFDPKTFFKLHDVNNDGFLDEQELEALFTKELDKVYNPQNAEDDMIEMEEERLRMREHVMNEIDNNKDRLVTLEEFLRATEKKEFLEPDSWETLDQQQLFTEEELKEYESIIAIQESELKKKADELQKQKEELQRQHDHLEAQKQEYQQAVQQLEQKKFQQGIAPSGPAGELKFEPHT
modifications: N-terminal Met added
B3 was tested, and the “amount of food intake” value (Wistar rats) was “did not exhibit any significant changes in the amount of food intake”.

B4: nesfatin-2: 79-residue peptide, amino acid Nos. 109 to 187 of nesfatin (SEQ ID NO: 16) (peptide, listed as Rattus norvegicus)
chain: QEVGRLRMLIKAKLDALQDTGMNHHLLLKQFEHLNHQNPDTFESKDLDMLIKAATADLEQYDRTRHEEFKKYEMMKEHE
B4 was tested, and the “amount of food intake” value (Wistar rats) was “did not exhibit any significant changes in the amount of food intake”.
